The first test deals with T1, Epidermal growth factor receptor (Homo sapiens, UniProt P00533). The test can be described thus: Inhibition of EGFR (unknown origin) using biotinylated-PTP1B (Tyr66) as substrate incubated for 5 mins prior to substrate addition measured after 1 hr by ELISA. A general note: ELISA stands for enzyme-linked immunosorbent assay.
T1 sequence (P00533 whole entry): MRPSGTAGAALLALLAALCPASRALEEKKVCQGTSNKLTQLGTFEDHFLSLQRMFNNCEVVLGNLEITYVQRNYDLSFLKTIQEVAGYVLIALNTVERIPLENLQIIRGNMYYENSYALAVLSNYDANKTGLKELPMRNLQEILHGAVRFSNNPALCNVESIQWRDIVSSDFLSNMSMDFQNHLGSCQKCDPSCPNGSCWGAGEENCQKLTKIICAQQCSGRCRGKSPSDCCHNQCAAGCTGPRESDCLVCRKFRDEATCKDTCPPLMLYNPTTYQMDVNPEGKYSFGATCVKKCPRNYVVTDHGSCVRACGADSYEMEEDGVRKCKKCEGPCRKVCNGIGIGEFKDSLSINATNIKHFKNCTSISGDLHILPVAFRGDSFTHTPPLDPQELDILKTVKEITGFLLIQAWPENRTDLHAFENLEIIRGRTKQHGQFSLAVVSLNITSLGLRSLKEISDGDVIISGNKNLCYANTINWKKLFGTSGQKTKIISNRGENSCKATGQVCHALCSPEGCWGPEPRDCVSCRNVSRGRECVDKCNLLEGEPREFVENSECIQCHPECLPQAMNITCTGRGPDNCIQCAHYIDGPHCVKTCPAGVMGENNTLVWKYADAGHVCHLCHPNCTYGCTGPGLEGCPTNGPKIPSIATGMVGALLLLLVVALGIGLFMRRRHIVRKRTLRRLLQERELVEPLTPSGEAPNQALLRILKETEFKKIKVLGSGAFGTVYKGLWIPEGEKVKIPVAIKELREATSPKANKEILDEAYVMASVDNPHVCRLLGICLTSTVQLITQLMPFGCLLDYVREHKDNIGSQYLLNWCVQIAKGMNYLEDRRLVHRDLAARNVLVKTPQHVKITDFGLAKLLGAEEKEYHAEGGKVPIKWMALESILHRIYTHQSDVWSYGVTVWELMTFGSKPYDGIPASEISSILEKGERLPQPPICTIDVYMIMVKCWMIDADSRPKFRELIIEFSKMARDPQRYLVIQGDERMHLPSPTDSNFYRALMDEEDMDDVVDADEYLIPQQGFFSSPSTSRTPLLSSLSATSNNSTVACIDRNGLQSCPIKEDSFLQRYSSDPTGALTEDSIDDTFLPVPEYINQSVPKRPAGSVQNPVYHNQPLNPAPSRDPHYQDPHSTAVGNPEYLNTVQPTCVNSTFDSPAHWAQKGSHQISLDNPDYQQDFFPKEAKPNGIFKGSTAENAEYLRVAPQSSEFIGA
One may read the IC50 as the concentration that gives 50% inhibition. A higher IC50 goes with weaker potency in that assay. With `COc1cc2ncnc(Nc3cccc(-c4ccccc4)c3)c2cc1OC`, the IC50 worked out at 0.127 µM. As for `COc1cc2ncnc(Nc3cccc(C#N)c3)c2cc1OC`, the IC50 worked out at 0.413 µM. In the case of `COc1cc2ncnc(Nc3ccc(F)c(Cl)c3)c2cc1OCCO`, the IC50 was determined as 0.0634 µM. `COc1cc2ncnc(Nc3ccc(F)c(Cl)c3)c2cc1OCCNCCN` gave an IC50 of 0.0121 µM.

In turn, `COc1cc2ncnc(Nc3ccc(F)c(Cl)c3)c2cc1OCCCNCCN` came in with an IC50 of 0.0136 µM. The same measure, in the same setting: with `COc1cc2ncnc(Nc3cccc(SC)c3)c2cc1OC` the figure was 0.127 µM; with `COc1cc2ncnc(Nc3ccccc3)c2cc1OC`, 0.201 µM.

The next test concerns the target T1, Epidermal growth factor receptor. The test can be described thus: Inhibition of EGFR (unknown origin).
Molecule `COc1cc2ncnc(Nc3ccc(C(C)(F)F)cc3)c2cc1OC` displayed an IC50 of 4.7 µM. In the case of `COc1cc2ncnc(Nc3ccccc3C(F)(F)F)c2cc1OC`, the half-inhibitory concentration (IC50) is 10 µM. Consider `COc1cc2ncnc(Nc3cccc(C(F)(F)F)c3)c2cc1OC`, for which 0.015 µM corresponded to half-maximal inhibition (IC50).
